PubChem BioAssay AID179 (DTP/NCI, 2004)
pEC50, pIC50: −log10 of the molar value. The source made the active and inactive calls.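 How the source made its calls: active means compounds giving half or more protection of infected cells from virus-caused growth loss, again on retest; inactive means the rest.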

System: CEM cells HIV-1 protection, formazan growth assay
Experiment: NCI AIDS Antiviral Assay
Conditions: for pIC50: measured here: growth of uninfected CEM cells
Method in brief: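 Protection of CEM cells against HIV-1 measured as cell growth via soluble formazan read-out, with five concentrations tested on both infected and uninfected cells; failure to protect may reflect toxicity.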

SMILES	pEC50	pIC50	outcome
Cc1c2oc(=O)cc(-c3ccccc3)c2cc2c(=O)ccoc12	< 4.65	< 4.65	
CO/N=C1/C(n2[nH]c(=O)n(-c3ccccc3)c2=O)C2C=CC1n1c(=O)n(-c3ccccc3)c(=O)n12 (configuration not stated)	< 3.70	< 3.70	
O=C1c2ccccc2CC12Cc1ccc3c(c1C2=O)CCCC3 (configuration not stated)	< 3.70	< 3.70	
N#CC(O)CCOCc1ccccc1 (configuration not stated)	< 3.70	4.27	
CC1=C(c2cc(C(=O)Nc3ccc(Cl)cc3)nc(=S)[nH]2)Sc2ccccc2N1	< 4.07	< 4.07	
OCC1(CO)CC2C3C=CC(C3)C2C1 (configuration not stated)	< 3.64	< 3.64	
O=C1OCCN1N1C(=O)CC2(CCN(Cc3ccccc3)CC2)C1=O	< 3.70	< 3.70	
COc1ccc2c(c1)OCC1Cc3cc4c(cc3OC21)OCO4 (configuration not stated)			inactive
CCN(CC)CC(=N)N(CC)c1ccccc1	< 3.38	3.71	
C(=N/N=C(N/N=C/C1CNCCN1)N/N=C/C1CNCCN1)/C1CNCCN1 (configuration not stated)	< 3.20	< 3.20	
COc1ccc(C2CC(=O)c3c(O)cc(OC4OC(COC5OC(C)C(O)C(O)C5O)C(O)C(O)C4O)cc3O2)cc1O (configuration not stated)	3.86	3.72	
O=C(C(=O)C(=O)C(=O)C1C(=O)c2ccccc2C1=O)C(=O)C(=O)C1C(=O)c2ccccc2C1=O			inactive
Cc1cc(SSc2cc(C)c3ccccc3n2)nc2ccccc12	< 3.70	3.96	
CCOC(=O)C1=C2c3cccnc3-c3ccccc3N2C(C(=O)OCC)C1C(=O)OCC (configuration not stated)			inactive
COc1cc(/C=C/c2sc3ccccc3[n+]2C)ccc1N(C)C	< 3.70	5.49	
Cc1ccc(N2C(=O)/C(=C3\Sc4c(nc(C)n(C)c4=O)N3c3ccccc3)SC2=S)cc1	< 5.52	< 5.52	
N#Cc1cc([N+](=O)[O-])ccc1NC(=O)C(=O)C(C(=O)c1ccc2ccccc2c1)C1OCc2ccccc21 (configuration not stated)	< 4.15	4.43	
CC(C)(C)NP(=O)(NC(C)(C)C)NC(C)(C)C	< 3.70	3.97	
N#C/C(=C/C=C/c1ccco1)C(N)=O	< 3.70	< 3.70	
O=C(c1nc2ccc([N+](=O)[O-])cc2[nH]c1=O)C(O)c1ccc([N+](=O)[O-])cc1 (configuration not stated)	4.23	3.96	
NS(=O)(=O)c1ccc(Nc2c3ccccc3nc3ncccc23)cc1	< 3.70	< 3.70	

SMILES	pEC50	pIC50	outcome
O=S(=O)(O)c1ccc(N=Nc2ccc(O)cc2O)cc1	< 3.70	3.95	
CN(C)CCNC(=O)c1cccc(NC(=O)c2ccccc2)c1[N+](=O)[O-]	< 3.70	< 3.70	
CCCCN(CCCC)/N=C/c1c2c(O)c3c(O)c(C)c4c(c3c1O)C(=O)C(C)(O/C=C/C(OC)C(C)C(OC(C)=O)C(C)C(O)C(C)C(O)C(C)/C=C/C=C(C)C(=O)N2)O4 (configuration not stated)	< 3.70	5.04	
C=Cc1ccccn1	< 3.70	< 3.70	
N#CC(C#N)=Cc1cc(Cl)ccc1O	< 3.70	4.53	
N=C(/C=C/c1ccc(-c2cn3cc(/C=C/C(=N)N4CCOCC4)ccc3n2)cc1)N1CCOCC1	3.79	3.73	
COc1cc(N)c2nc(C(O)C(O)C(O)CO)cnc2c1 (configuration not stated)	< 3.07	3.21	
Cn1c(=O)cc(C=Nc2ccc(O)cc2)c2ccccc21	< 3.70	5.76	
O=c1c2ncn(C3CCCO3)c2n(-c2ccccc2)c(=S)n1-c1ccccc1 (configuration not stated)	< 3.70	< 3.70	
CC(=O)Nc1ccc(S(=O)(=O)Nc2ccc(S(=O)(=O)c3ccc(NC(=O)c4ccccc4SSc4ccccc4C(=O)Nc4ccc(S(=O)(=O)c5ccc(NS(=O)(=O)c6ccc(NC(C)=O)cc6)cc5)cc4)cc3)cc2)cc1	4.62	< 4.00	
CCC1CCC23OOC(C)(CCC2C1)O[C@@H]3OC (some centres not stated)	< 4.31	< 4.31	
COc1cc2c3c(c1OCc1ccccc1)NCCC3NCC2 (configuration not stated)			inactive
COc1ccccc1CO[C@]1(C)CNCC(C)(C)NC(=O)[C@](C)(OCc2ccccc2OC)CNCC(C)(C)NC1=O	< 3.70	4.04	
CN(C)CCNc1nc2c(no[n+]2[O-])c2ccccc12	< 3.70	5.03	
O=C1CCCCCCCCCCC(=O)C2CCOCCOCCOCCC1Cc1cccc(n1)C2	< 3.86	< 3.86	
Cc1occc1C(=S)Nc1ccc(Cl)c(/C=N/OC(C)(C)C)c1	6.71	4.83	
CC1=C(C)C2(C#N)CC(=O)N=C2O1 (configuration not stated)	< 3.70	< 3.70	
CCOC(=O)C1CC(C(=O)c2ccccc2)N2c3ccccc3-c3ccccc3C12 (configuration not stated)	< 3.70	5.07	
CC1=CCC(=O)[C@]2(C)C(CC(=O)O)[C@]3(C)C4=C(C)C(c5ccoc5)C[C@@H]4O[C@@H]3[C@H](O)[C@@H]12 (some centres not stated)	< 3.26	< 3.26	
O=c1[nH][nH]c(=O)n1Cc1ccccc1Cn1c(=O)[nH][nH]c1=O	< 4.00	< 4.00	
CCOc1cc2c(cnc3c4cc(OC)c(OC)cc4ccc23)cc1OC	< 4.56	< 4.56	

SMILES	pEC50	pIC50	outcome
O=c1c2ccccc2c2c3c1cccc3c1cccc3c(=O)c4ccccc4c2c31	< 5.15	< 5.15	
Cc1cc(=O)c2c(O)c3c(O)cc(O)c4c5c(O)cc(O)c6c(O)c7c(=O)cc(C)c8c1c2c(c34)c(c65)c78	< 4.00		
O=C(CC1=Nc2nnc(-c3nnc4n3C(=O)C(CC(=O)c3cccnc3)=N4)n2C1=O)c1cccnc1	< 4.82	< 4.82	
S=C1N(c2ccc(Br)cc2)C2=Nc3ccccc3SC(=C2N=Nc2ccc(Br)cc2)N1c1ccc(Cl)cc1	< 4.49	5.21	
CC1=NNC(=O)C1C1CC(c2c[nH]c3ccccc23)=NNC1=O (configuration not stated)	< 3.70	3.81	
CCOc1ccc(-n2c(=O)c(N=Nc3ccccc3Cl)c(O)n(-c3ccc(Br)cc3)c2=S)cc1	< 3.76	< 3.76	
C1=CC2(C=C1)OC21CCC2(C=CC3(C2)OC3C2CCCCC2)CC1 (configuration not stated)	< 3.70	4.29	
Oc1ccccc1-c1n[nH]c(-c2ccccc2O)n1	< 3.70	5.86	
O=C(Nc1nnc(-c2ccccc2)s1)c1cc(=O)c2cc([N+](=O)[O-])ccc2o1	< 3.70	< 3.70	
COc1cc2ccc(CC(N)=O)cc2cc1OC			inactive
COC(=O)CC1C(C)(C)C(=O)C2CC3=C4CC(=O)OC(c5ccoc5)C4(C)CCC3C1(C)C2=O (configuration not stated)	< 4.26	< 4.26	
C/C=C1/CN2CCC34C5=CC(=O)C(c6cc7c(cc6OC)N(C)C6=C(C(=O)OC)CC8(CC)CCCN9CCC67C98)=CC5=NC23CCC1C4C(=O)OC (configuration not stated)	< 3.70	5.31	
COC(=O)/C=C\C1C(C(=O)OC)C2(C(=O)OC)CCC1(C(=O)OC)N2 (configuration not stated)			inactive
CCC(=O)OC1CCC2C3CCC(=O)OC3C(C)(CCC(=O)O)CC12C (configuration not stated)	< 3.70	5.72	
CCCC1OC(CCC)C2CCCOC2O1 (configuration not stated)	< 3.70	< 3.70	
CCCc1nn2c(-c3ccccc3)nnc2o1	< 3.70	4.20	
N/N=C1\C(=O)N(C2CCCCC2)C(=O)C1C(=O)NC1CCCCC1 (configuration not stated)			inactive
CCCCCCCCCCOC1C(C(O)CNCCCN(C)C)OC2OC3(CCCCC3)OC21 (configuration not stated)	< 3.70	5.99	
C#CCN1CCC2=C(C1)c1c(O)cc(C(C)C(C)CCCCC)cc1OC2(C)C (configuration not stated)	< 4.49	4.83	
CCOC(=O)C1=NN(c2ccccc2)C(=O)/C1=C\N1C(=S)NC(=O)/C1=C\c1cccc([N+](=O)[O-])c1	< 3.70	4.05	
Oc1ccccc1/C=N/N1C(=S)N(C23CC4CC(CC(C4)C2)C3)C(=Nc2ccccc2)C1=Nc1ccccc1	< 3.70	4.07	

SMILES	pEC50	pIC50	outcome
N#Cc1[nH]c(=O)n(-c2ccc([N+](=O)[O-])cc2)c1N	< 3.70	< 3.70	
CC12CCC(C(S(=O)(=O)Nc3ccccc3)C1=O)C2(C)C (configuration not stated)	< 3.70	3.86	
CC1(C)CCCC2(C)C3=C(CCC12)C(=O)OC3 (configuration not stated)	< 4.51	< 4.51	
C=CCCC(=O)C(Cc1ccccc1OC)C(=O)OC (configuration not stated)	< 3.89	< 3.89	
N#CCCN(c1ccc(-c2nnc(NC(=O)CNNC(=O)CC(=O)Nc3ccccc3)s2)cc1)S(=O)(=O)c1ccccc1	< 4.38	< 4.38	
CC(=O)Nc1cc(C(=O)Nc2cc(C(=O)Nc3cc(C(=O)Nc4cc(C(=O)Nc5cc(C(=O)NCCC(=O)NCCCN(C)C)n(C)c5)n(C)c4)n(C)c3)n(C)c2)n(C)c1	< 3.76	4.57	
Clc1ccc(Cl)c(SSc2cc(Cl)ccc2Cl)c1			inactive
CCCCCC(=O)NC(=S)Nc1nn[nH]n1	< 3.70	< 3.70	
CN=c1ssc(=S)n1C(C)C	< 3.70	4.79	
CCCCCCCCCCCCC/C=C\[C@@H](OC(=O)c1ccccc1)C(CO)N=[N+]=[N-] (some centres not stated)			inactive
O=C1/C(=C/c2ccc(O)c(O)c2)CCc2ccccc21	< 3.79	5.62	
CCCC(=O)Oc1c(Cl)cc(C(=CCC[C@H]2CC[C@@]3(C)[C@@H](CC[C@@H]4[C@@H]3CC[C@]3(C)[C@@H]([C@H](C)CCCC(C)C)CC[C@@H]43)C2)c2cc(Cl)c(OC(=O)CCC)c(C(=O)O)c2)cc1C(=O)O	4.10	< 4.00	
O=c1[nH]c(=O)n(C2CC(O)C(CO)O2)cc1OCc1ccccc1 (configuration not stated)	< 3.70	< 3.70	
CC(=O)NC1=C(C)C(=O)c2c(nc3n2CCC3OC(=O)c2ccccc2)C1=N (configuration not stated)	< 3.70	6.04	
COc1ccccc1/C=C/C(=O)N1CCC2(CC1)C(=O)N(C)CN2c1ccccc1	< 3.70	4.29	
CSc1cnnc2ccccc12	< 3.22	3.58	
COC(=O)C1=C2Nc3ccccc3C23CCN2CCC(=O)C[C@H](C1)[C@@H]23 (some centres not stated)	< 3.97	< 3.97	
CC(C)(C)[Si](C)(C)OCCC1CC2(S(=O)(=O)C3=CC=C=C=C3)ON1CC2S(=O)(=O)c1ccccc1 (configuration not stated)	< 4.45	< 4.45	
CC1=NNC(=O)C1	< 3.70	4.18	
C/C(=N\O)c1ccccc1			inactive
CN(C)CCC(O)(Cc1ccccc1)c1ccco1 (configuration not stated)	< 3.70	4.46	
